Results published in patent publication US20130085304A1, “PROCESSES FOR PREPARATION OF POLYMORPHIC FORMS OF LACOSAMIDE” (priority 2009, published 2013).

Legend:
[1] = Effect of time on stability of polymorphic form; assay type: physicochemical
Description: Polymorphic Form A of lacosamide was kept at 0° C. to 5° C. for 3 months.
Polymorphic Form B of lacosamide was kept at 0° C. to 5° C. for 7 months.

[2] = Drying of Example 3 wet mass at rising temperatures, polymorph checked by XRD; assay type: physicochemical; details: for Product characterized (based on XRD thereof) as: 6 hours
Description: Lacosamide (20 g) was added to ethyl acetate (120 ml) at ambient temperature and heated at 75° C. to 80° C. This was cooled to ambient temperature in 1 hour and then filtered. […] The wet mass was dried at the following temperatures each for the specified time and analyzed.

[3] = Solubility of polymorphic Form A and Form B in de-ionized water
Description: Lacosamide polymorphic Forms A and B were tested for solubility studies by dissolving the Form A or Form B in de-ionized water.

For COC[C@@H](NC(C)=O)C(=O)NCc1ccccc1 [Form B, (R)-2-acetamido-N-benzyl-3-methoxypropionamide], the “Polymorphic form on reanalysis after storage” value ([1]; kept at 0° C. to 5° C. for 7 months) was “characterized as Form B”.

In the case of COC[C@@H](NC(C)=O)C(=O)NCc1ccccc1 [Form A, (R)-2-acetamido-N-benzyl-3-methoxypropionamide], the “Polymorphic form on reanalysis after storage” value ([1]; kept at 0° C. to 5° C. for 3 months) is reported as “characterized as Form A”, the “Product characterized (based on XRD thereof) as” value (“Product characterized” for short) ([2]; Example 3 wet mass dried at 35-40 °C) is reported as “Crystalline Form A” and the “Product characterized” value ([2]; Example 3 wet mass dried at 40-45 °C) is reported as “Crystalline Form A”. The “Product characterized” value ([2]; Example 3 wet mass dried at 45-50 °C) was “Crystalline Form A”, the “Product characterized” value ([2]; Example 3 wet mass dried at 50-55 °C) was “Crystalline Form A” and the “Product characterized” value ([2]; Example 3 wet mass dried at 55-60 °C) was “Crystalline Form A”. The “Product characterized” value ([2]; Example 3 wet mass dried at 60-65 °C) was “Crystalline Form A”, the “Change in polymorph pattern on heating” value ([2]; heated for 36 hours in the temperature range of 35° C. to 65° C.) was “no change in polymorph pattern” and the “Solubility status in de-ionized water (1 in 45 parts)” value [3] was “Sparingly soluble”.
